Columns and labels:
FGFR2 (h) = FGFR2 (h) (Homo sapiens, UniProt P21802); test: FGFR2 (enzymatic assay), TR-FRET; format: biochemical; details: read-out: FGFR 2 pIC50 (converted)
Protocol: In a final reaction volume of 30 μL, FGFR2 (h) (150 ng/ml) was incubated with 50 mM HEPES pH 7.5, 6 mM MnCl2, 1 mM DTT, 0.1 mM Na3VO4, 0.01% Triton-X-100, 500 nM Btn-Flt3 and 0.4 μM ATP in the presence of compound (1% DMSO final). […] Time-Resolved Fluorescence Resonance Energy Transfer (TR-FRET) signal (ex340 nm. Em 620 nm, em 655 nm) was measured afterwards and results are expressed in (Relative Fluorescence Units).

FGFR3 (h) = FGFR3 (h) (Homo sapiens, UniProt P22607); test: FGFR3 (enzymatic assay), TR-FRET; format: biochemical; details: read-out: FGFR 3 pIC50 (converted)
Chain of FGFR3 (h) (P22607 23-806): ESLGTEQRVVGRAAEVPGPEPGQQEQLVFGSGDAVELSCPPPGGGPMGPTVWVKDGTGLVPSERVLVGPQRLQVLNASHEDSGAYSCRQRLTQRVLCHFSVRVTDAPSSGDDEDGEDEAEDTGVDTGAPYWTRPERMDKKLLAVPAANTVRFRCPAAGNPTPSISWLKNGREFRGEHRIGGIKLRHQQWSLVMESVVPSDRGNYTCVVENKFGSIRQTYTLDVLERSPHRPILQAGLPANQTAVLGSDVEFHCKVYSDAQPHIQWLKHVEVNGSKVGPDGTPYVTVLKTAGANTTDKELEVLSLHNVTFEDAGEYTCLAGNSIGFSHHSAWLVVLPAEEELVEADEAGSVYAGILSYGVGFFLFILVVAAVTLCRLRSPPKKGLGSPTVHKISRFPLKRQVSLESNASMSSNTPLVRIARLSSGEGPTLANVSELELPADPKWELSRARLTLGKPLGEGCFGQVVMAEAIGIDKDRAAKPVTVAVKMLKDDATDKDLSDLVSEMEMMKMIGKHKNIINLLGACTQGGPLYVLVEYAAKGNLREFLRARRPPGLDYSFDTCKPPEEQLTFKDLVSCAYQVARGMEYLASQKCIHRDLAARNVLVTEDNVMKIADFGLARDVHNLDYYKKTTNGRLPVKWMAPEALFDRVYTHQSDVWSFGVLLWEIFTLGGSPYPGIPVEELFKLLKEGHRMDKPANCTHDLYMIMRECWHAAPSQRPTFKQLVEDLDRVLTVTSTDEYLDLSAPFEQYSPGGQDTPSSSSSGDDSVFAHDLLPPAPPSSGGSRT
Protocol: In a final reaction volume of 30 μL, FGFR3 (h) (40 ng/ml) was incubated with 50 mM HEPES pH 7.5, 6 mM MnCl2, 1 mM DTT, 0.1 mM Na3VO4, 0.01% Triton-X-100, 500 nM Btn-Flt3 and 25 μM ATP in the presence of compound (1% DMSO final). […] Time-Resolved Fluorescence Resonance Energy Transfer (TR-FRET) signal (ex340 nm. Em 620 nm, em 655 nm) was measured afterwards and results are expressed in RFU (Relative Fluorescence Units).

FGFR4 (h) = FGFR4 (h) (Homo sapiens, UniProt P22455); test: FGFR4 (enzymatic assay), TR-FRET; format: biochemical; details: read-out: FGFR 4 pIC50 (converted)
Chain of FGFR4 (h) (P22455 22-802): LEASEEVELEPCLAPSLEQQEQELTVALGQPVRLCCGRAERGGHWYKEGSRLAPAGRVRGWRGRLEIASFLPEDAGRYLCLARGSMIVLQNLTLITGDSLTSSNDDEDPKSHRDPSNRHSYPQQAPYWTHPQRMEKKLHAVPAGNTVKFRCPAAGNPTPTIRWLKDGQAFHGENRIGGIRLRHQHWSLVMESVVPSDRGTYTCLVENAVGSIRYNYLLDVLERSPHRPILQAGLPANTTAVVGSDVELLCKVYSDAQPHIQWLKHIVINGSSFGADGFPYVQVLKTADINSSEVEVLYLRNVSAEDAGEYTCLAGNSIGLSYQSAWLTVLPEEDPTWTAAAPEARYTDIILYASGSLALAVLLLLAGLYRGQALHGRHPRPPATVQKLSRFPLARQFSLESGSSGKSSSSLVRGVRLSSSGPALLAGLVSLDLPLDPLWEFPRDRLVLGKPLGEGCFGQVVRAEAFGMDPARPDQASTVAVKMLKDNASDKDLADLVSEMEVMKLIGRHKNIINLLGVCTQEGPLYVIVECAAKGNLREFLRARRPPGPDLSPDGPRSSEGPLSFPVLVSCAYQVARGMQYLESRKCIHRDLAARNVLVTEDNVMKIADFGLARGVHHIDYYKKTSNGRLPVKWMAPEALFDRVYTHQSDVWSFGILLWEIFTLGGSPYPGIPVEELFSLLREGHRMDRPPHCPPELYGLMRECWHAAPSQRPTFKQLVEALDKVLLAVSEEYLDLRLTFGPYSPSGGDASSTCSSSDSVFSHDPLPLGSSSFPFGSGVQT
Protocol: In a final reaction volume of 30 μL, FGFR4 (h) (60 ng/ml) was incubated with 50 mM HEPES pH 7.5, 6 mM MnCl2, 1 mM DTT, 0.1 mM Na3VO4, 0.01% Triton-X-100, 500 nM Btn-Flt3 and 5 μM ATP in the presence of compound (1% DMSO final). […] Time-Resolved Fluorescence Resonance Energy Transfer (TR-FRET) signal (ex340 nm. Em 620 nm, em 655 nm) was measured afterwards and results are expressed in RFU (Relative Fluorescence Units).

KDR (h) (VEGFR2) = KDR (h) (VEGFR2) (Homo sapiens, UniProt P35968); test: KDR (VEGFR2) (enzymatic assay), TR-FRET; format: biochemical
Chain of KDR (h) (VEGFR2) (P35968 20-1356): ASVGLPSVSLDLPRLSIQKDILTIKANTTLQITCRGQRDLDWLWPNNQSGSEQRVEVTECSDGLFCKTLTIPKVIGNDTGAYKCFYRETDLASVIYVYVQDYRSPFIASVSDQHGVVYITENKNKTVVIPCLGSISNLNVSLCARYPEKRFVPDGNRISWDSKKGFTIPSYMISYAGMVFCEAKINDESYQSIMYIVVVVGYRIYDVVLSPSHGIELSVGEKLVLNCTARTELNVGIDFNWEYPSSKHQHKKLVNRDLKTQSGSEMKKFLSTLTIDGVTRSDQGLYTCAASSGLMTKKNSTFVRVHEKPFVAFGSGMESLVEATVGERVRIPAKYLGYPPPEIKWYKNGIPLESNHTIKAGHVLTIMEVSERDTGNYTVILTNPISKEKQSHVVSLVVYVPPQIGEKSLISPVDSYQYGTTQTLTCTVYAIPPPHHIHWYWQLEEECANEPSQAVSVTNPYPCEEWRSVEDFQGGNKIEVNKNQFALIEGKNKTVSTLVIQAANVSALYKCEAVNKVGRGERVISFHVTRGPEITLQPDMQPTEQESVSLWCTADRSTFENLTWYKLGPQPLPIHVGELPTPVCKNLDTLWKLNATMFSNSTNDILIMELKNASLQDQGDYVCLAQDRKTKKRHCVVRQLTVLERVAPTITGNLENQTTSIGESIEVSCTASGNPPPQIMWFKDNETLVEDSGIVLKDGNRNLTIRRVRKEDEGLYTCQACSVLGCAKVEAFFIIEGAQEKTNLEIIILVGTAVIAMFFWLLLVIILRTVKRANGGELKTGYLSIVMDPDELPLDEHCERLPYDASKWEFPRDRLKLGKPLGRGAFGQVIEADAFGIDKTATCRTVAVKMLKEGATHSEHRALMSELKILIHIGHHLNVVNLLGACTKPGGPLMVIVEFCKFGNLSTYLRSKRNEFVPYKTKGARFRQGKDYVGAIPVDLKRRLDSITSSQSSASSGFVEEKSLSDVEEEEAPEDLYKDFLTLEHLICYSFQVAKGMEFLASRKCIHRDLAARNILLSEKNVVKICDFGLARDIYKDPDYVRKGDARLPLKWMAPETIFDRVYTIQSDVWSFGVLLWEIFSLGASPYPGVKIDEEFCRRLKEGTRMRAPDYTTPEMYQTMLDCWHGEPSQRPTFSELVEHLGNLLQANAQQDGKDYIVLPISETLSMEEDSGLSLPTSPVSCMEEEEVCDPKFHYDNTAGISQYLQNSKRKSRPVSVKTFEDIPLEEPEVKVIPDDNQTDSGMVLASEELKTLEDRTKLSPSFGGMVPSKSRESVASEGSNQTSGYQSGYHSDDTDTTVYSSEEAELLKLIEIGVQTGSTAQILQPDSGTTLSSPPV
Summary of the method: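 Phosphorylation of biotinylated Flt3 peptide (500 nM) by 150 ng/ml enzyme was measured at 3 μM ATP in Mn2+-containing HEPES buffer, pH 7.5, over 120 min at room temperature. Detection used Eu-anti-P-Tyr and SA-XL-665 TR-FRET.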

[1] = biological target: Ba/F3-KDR-transfected cells (Homo sapiens, UniProt P35968); test: Ba/F3-KDR (minus IL3) cellular proliferation assay, Alamar Blue; format: cell-based; details: minus IL3
Chain of Ba/F3-KDR-transfected cells (P35968 whole entry, change not shown): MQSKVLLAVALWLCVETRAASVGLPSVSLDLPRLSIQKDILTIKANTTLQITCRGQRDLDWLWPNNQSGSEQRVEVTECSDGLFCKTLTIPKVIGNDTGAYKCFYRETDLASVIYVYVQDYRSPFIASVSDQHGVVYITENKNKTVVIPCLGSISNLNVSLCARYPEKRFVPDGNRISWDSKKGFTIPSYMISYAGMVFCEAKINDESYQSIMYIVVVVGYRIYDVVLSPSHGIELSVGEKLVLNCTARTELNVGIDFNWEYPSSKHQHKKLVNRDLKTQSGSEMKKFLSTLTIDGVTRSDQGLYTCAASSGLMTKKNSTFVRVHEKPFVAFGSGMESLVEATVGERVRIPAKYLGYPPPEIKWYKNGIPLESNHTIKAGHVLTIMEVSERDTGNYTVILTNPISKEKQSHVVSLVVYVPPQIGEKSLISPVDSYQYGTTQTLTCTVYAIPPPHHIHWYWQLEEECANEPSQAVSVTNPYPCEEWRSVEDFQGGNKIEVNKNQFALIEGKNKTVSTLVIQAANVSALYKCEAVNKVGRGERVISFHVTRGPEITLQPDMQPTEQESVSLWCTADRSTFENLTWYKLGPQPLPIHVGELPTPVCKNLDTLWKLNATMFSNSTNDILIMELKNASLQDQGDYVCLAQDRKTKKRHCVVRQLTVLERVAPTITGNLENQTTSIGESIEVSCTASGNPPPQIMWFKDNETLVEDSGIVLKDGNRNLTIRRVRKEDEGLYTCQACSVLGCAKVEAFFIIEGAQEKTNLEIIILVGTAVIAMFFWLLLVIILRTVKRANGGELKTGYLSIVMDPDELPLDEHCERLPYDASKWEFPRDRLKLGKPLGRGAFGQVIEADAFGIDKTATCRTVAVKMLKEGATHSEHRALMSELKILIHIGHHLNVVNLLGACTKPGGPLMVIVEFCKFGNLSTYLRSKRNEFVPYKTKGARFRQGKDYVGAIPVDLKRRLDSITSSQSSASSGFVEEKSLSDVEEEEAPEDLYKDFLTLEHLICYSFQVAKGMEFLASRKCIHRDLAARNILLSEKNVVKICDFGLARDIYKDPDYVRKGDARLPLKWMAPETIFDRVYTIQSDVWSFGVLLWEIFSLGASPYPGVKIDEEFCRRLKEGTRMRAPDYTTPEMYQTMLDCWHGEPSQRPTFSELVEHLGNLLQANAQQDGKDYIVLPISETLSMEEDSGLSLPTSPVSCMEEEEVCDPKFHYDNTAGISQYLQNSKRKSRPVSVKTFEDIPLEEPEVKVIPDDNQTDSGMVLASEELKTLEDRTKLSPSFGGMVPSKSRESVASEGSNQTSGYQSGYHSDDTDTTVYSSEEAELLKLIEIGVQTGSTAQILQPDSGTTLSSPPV
Summary of the method: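 Compound in DMSO was combined with Ba/F3-KDR-transfected cells in RPMI-1640, 10% FBS, 2 mM L-glutamine. After 24 h incubation at 37 °C, Alamar Blue was added for a further 4 h, then relative fluorescence units were measured.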

[2] = system: Ba/F3-Flt3-transfected cells in the presence of 10 ng/ml murine IL3; test: Ba/F3-Flt3 (plus IL3) cellular proliferation counterscreen, Alamar Blue; format: cell-based; details: Mus musculus; plus 10 ng/ml murine IL3; read-out: BAF3-FLT3 (PLUS IL3) 384 well pIC50 (converted)

Chain of FGFR2 (h) (P21802 22-821): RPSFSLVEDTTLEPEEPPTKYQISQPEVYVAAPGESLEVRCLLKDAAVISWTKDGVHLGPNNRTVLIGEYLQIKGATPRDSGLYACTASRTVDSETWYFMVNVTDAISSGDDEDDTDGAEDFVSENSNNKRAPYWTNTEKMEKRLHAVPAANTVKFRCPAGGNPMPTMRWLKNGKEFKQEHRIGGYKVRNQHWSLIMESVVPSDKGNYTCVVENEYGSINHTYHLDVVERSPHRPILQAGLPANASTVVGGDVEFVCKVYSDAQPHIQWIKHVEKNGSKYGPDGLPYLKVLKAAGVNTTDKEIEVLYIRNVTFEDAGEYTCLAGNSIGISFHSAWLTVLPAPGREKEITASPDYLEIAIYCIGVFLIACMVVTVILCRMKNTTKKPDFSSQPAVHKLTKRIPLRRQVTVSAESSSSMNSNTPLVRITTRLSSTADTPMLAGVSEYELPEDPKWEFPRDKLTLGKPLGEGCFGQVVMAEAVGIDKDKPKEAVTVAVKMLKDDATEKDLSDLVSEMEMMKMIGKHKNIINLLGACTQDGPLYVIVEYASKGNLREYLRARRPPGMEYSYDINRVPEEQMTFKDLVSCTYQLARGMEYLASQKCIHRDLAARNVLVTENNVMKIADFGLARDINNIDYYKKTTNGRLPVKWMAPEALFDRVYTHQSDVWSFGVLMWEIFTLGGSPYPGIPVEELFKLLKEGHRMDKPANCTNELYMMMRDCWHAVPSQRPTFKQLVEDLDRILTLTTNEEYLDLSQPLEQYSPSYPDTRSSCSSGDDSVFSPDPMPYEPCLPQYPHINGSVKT

SMILES | IC50 (FGFR2 (h)) | IC50 (FGFR3 (h)) | IC50 (FGFR4 (h)) | IC50 (KDR (h) (VEGFR2)) | BAF3-KDR (MIN IL3) 384 well pIC50 [1] | IC50 [2] | BAF3-KDR (MIN IL3) 96 well pIC50 [1]
CNc1ccc(-c2cnc3ccc(N(CCCO)c4cc(OC)cc(OC)c4)cc3n2)cn1 [Compound 116] | 10.7 nM | 3.24 nM | 17.8 nM | 135 nM | 5.19 | > 10 µM | –
COc1cc(OC)cc(N(CC(O)CO)c2ccc3ncc(-c4ccc(N)nc4)nc3c2)c1 (stereo not shown) [Compound 74] | 11.5 nM | 4.37 nM | 26.9 nM | 309 nM | <5 | > 10 µM | –
COc1cc(OC)cc(N(CC2CC2)c2ccc3ncc(-c4nnn[nH]4)nc3c2)c1 [Compound 41] | 178 nM | 64.6 nM | 79.4 nM | 3310 nM | <5 | > 10 µM | –
COc1cc(OC)cc(N(CC2CC2)c2ccc3ncc(-n4ccnc4C)nc3c2)c1 [Compound 32] | 575 nM | 479 nM | > 1000 nM | > 1000 nM | <5 | > 10 µM | –
COc1cc(OC)cc(N(CC2CC2)c2ccc3ncc(-n4cnc(C)c4)nc3c2)c1 [Compound 30] | 67.6 nM | 26.9 nM | 214 nM | 501 nM | 5.07 | > 10 µM | 5.11
COc1cc(OC)cc(N(CCCO)c2ccc3ncc(-c4cccnc4)nc3c2)c1 [Compound 112] | 20.9 nM | 7.41 nM | 58.9 nM | 468 nM | <5 | > 10 µM | –
COc1cc(OC)cc(N(CCO)c2ccc3ncc(-c4ccnc(C(=O)NCCCN)c4)nc3c2)c1 [Compound 123] | 25.7 nM | 14.5 nM | 245 nM | 575 nM | <5 | > 10 µM | –
COCCCN(c1cc(OC)cc(OC)c1)c1ccc2ncc(-c3ccn(C)c3)nc2c1 [Compound 3] | 19.5 nM | 10 nM | 38.9 nM | 126 nM | 5.07 | > 10 µM | –
COc1cc(OC)cc(N(CC2CC2)c2ccc3ncc(-c4ocnc4C)nc3c2)c1 [Compound 104] | ~417 nM | 117 nM | 575 nM | > 1000 nM | <5 | > 10 µM | –
CNC(=O)c1cc(-c2cnc3ccc(N(CCNC(C)C)c4cc(OC)cc(OC)c4)cc3n2)ccn1 [Compound 14] | 5.62 nM | 9.55 nM | 41.7 nM | 490 nM | 5.35 | > 10 µM | –
CNC(=O)OCCN(c1cc(OC)cc(OC)c1)c1ccc2ncc(-c3ccc(NC(=O)OC(C)(C)C)nc3)nc2c1 [Compound 80] | 912 nM | ~347 nM | > 1000 nM | > 1000 nM | <5 | > 10 µM | –
COc1cc(OC)cc(N(CC2CC2)c2ccc3ncc(C#Cc4ccncc4)nc3c2)c1 [Compound 23] | 427 nM | 214 nM | > 1000 nM | > 1000 nM | <5 | > 10 µM | 5.36
COc1cc(OC)cc(N(CCNC(C)C)c2ccc3ncc(-c4ccn(C)c4)nc3c2)c1 [Compound 8] | 2.63 nM | 2.34 nM | 3.47 nM | 20 nM | 6.19 | > 10 µM | –
COc1cc(OC)cc(N(CC2CO2)c2ccc3ncc(-c4ccc(N)nc4)nc3c2)c1 (stereo not shown) [Compound 110] | 17.4 nM | 21.4 nM | 145 nM | 275 nM | 5.45 | > 10 µM | –
COc1cc(OC)cc(N(CC2CC2)c2ccc3ncc(-c4cnco4)nc3c2)c1 [Compound 55] | 47.9 nM | 30.9 nM | 275 nM | 912 nM | <5 | > 10 µM | <5
COc1cc(OC)cc(N(CCO)c2ccc3ncc(-c4ccncc4)nc3c2)c1 [Compound 11] | 14.1 nM | 4.47 nM | 41.7 nM | 269 nM | 5.1 | > 10 µM | –
COc1cc(OC)cc(N(CCO)c2ccc3ncc(-c4ccccc4)nc3c2)c1 [Compound 120] | 15.1 nM | 3.98 nM | 20 nM | 263 nM | <5 | > 10 µM | –
COc1cc(OC)cc(N(CCO)c2ccc3ncc(-c4ccc(OC)nc4)nc3c2)c1 [Compound 111] | 23.4 nM | 9.77 nM | 70.8 nM | 741 nM | <5 | > 10 µM | –
COc1cc(OC)cc(N(CCCO)c2ccc3ncc(-c4ccnc(N)c4)nc3c2)c1 [Compound 66] | 4.07 nM | 2.09 nM | 13.2 nM | 75.9 nM | 5.52 | > 10 µM | –
COc1cc(OC)cc(N(CCNC(C)C)c2ccc3ncc(-c4ccc(N)nc4)nc3c2)c1 [Compound 17] | 2.11 nM | 3.2 nM | 8.04 nM | 94.4 nM | 5.82 | > 9.55 µM | –
COc1cc(OC)cc(N(CC2CC2)c2ccc3ncc(-c4cn[nH]n4)nc3c2)c1 [Compound 69] | 166 nM | 61.7 nM | 251 nM | > 1000 nM | <5 | > 10 µM | <5

Source: patent publication US10052320B2, “Substituted quinoxalines as FGFR kinase inhibitors” (ASTEX THERAPEUTICS LIMITED, priority 2011, dated 2018)
